Data taken from US6369035B1, “3,6-hemiketals from the class of 9A-azalides” (Pliva, farmaceutska industrja, dionicko …, priority 1997, dated 2002).
In brackets after ≈: the same amount, converted by molar mass. Where two headings read alike, the source gives them in different places.

Experiments:
[1] = system: B. cereus ATCC 11778; experiment: Antibacterial in vitro activity, MIC by double dilution, standard strains; assay type: cell-based; details: 37° C., 18 hours
Description: (§1) Antibacterial in vitro activity of the novel compounds of the general formula (I) and their pharmaceutically acceptable addition salts with inorganic or organic acids on a series of standard test-microorganisms was determined in a Mueller-Hinton medium (Difco-Laboratories, Detroit, Mich.) by a conventional method of double dilution in accordance with recommendations of NCCLS (The National Committee for Clinical Laboratory Standards). Each test microorganism was inoculated to the final inoculum size of 5×10^5 cfu/ml and the incubation was carried out in an […] manner at 37° C. during 18 hours. The MIC in the liquid medium was defined as the lowest concentration of an antibacterial agent inhibiting visible growth in microdilutional containers. Control organisms were obtained from ATCC (The American Type Culture Collection). All standards were identified by a standard procedure and were storaged at −70° C.

[2] = system: Bacillus subtilis ATCC 6633; experiment: as above; assay type: cell-based; details: 37° C., 18 hours
Description: as §1

[3] = system: Escherichia coli ATCC 10536; experiment: as above; assay type: cell-based; details: 37° C., 18 hours
Description: as §1

[4] = system: M. luteus ATCC 9341; experiment: as above; assay type: cell-based; details: 37° C., 18 hours
Description: as §1

[5] = system: Micrococcus flavus ATCC 10240; experiment: as above; assay type: cell-based; details: 37° C., 18 hours
Description: as §1

[6] = system: S. aureus ATCC 29213; experiment: as above; assay type: cell-based; details: 37° C., 18 hours
Description: as §1

[7] = system: S. eperidermidis ATCC 12228; experiment: as above; assay type: cell-based; details: Mueller-Hinton medium, 37° C., 18 hours
Description: as §1

[8] = system: Staphylococcus aureus ATCC 6538 P; experiment: as above; assay type: cell-based; details: 37° C., 18 hours
Description: as §1

[9] = system: Streptococcus faecalis ATCC 8043; experiment: as above; assay type: cell-based; details: 37° C., 18 hours
Description: as §1

[10] = system: Enterococcus sp. clinical isolates (35); experiment: Antibacterial in vitro activity, MIC, clinical isolates; assay type: cell-based; details: 35 clinical isolates
Description: as §1

[11] = system: Haemophilus influenzae clinical isolates (40); experiment: as above; assay type: cell-based; details: 40 clinical isolates
Description: as §1

[12] = system: S. epidermidis clinical isolates (20); experiment: as above; assay type: cell-based; details: 20 clinical isolates
Description: as §1

[13] = system: Staph. aureus. clinical isolates (77); experiment: as above; assay type: cell-based; details: 77 clinical isolates
Description: as §1

[14] = system: Streptococcus pneumoniae clinical isolates (25); experiment: as above; assay type: cell-based; details: 25 clinical isolates
Description: as §1

[15] = rat, in vivo, po, 20 mg/kg

Structure (SMILES): CC[C@H]1OC(=O)[C@H](C)[C@@H](O[C@H]2C[C@@](C)(OC)[C@@H](O)[C@H](C)O2)[C@H](C)[C@@H](O[C@@H]2O[C@H](C)C[C@H](N(C)C)[C@H]2O)[C@](C)(O)C[C@@H](C)CN(C)[C@H](C)[C@@H](O)[C@]1(C)OC [12-O-Methyl-azithromycin]
- MIC ([1]; Mueller-Hinton medium): 0.25 µg/mL (≈ 0.328 µM)
- MIC ([2]; Mueller-Hinton medium): 1 µg/mL (≈ 1.31 µM)
- MIC ([3]; Mueller-Hinton medium): 0.5 µg/mL (≈ 0.655 µM)
- MIC ([4]; Mueller-Hinton medium): 0.03 µg/mL (≈ 0.0393 µM)
- MIC ([5]; Mueller-Hinton medium): 0.12 µg/mL (≈ 0.157 µM)
- MIC ([6]; Mueller-Hinton medium): 0.25 µg/mL (≈ 0.328 µM)
- MIC [7]: 0.03 µg/mL (≈ 0.0393 µM)
- MIC ([8]; Mueller-Hinton medium): 0.25 µg/mL (≈ 0.328 µM)
- MIC ([9]; Mueller-Hinton medium): 0.25 µg/mL (≈ 0.328 µM)
- MIC 50% [10]: 0.5 µg/mL (≈ 0.655 µM)
- MIC 90% [10]: 8 µg/mL (≈ 10.5 µM)
- MIC Range [10]: 0.12 to 8 µg/mL
- MIC 50% [11]: 0.12 µg/mL (≈ 0.157 µM)
- MIC 90% [11]: 0.25 µg/mL (≈ 0.328 µM)
- MIC Range [11]: 0.06 to 0.5 µg/mL
- MIC 50% [12]: 0.25 µg/mL (≈ 0.328 µM)
- MIC 90% [12]: 4 µg/mL (≈ 5.24 µM)
- MIC Range [12]: 0.12 to 8 µg/mL
- MIC 50% [13]: 0.25 µg/mL (≈ 0.328 µM)
- MIC 90% [13]: 1 µg/mL (≈ 1.31 µM)
- MIC Range [13]: 0.12 to 2 µg/mL
- MIC 50% [14]: 0.03 µg/mL (≈ 0.0393 µM)
- MIC 90% [14]: 0.12 µg/mL (≈ 0.157 µM)
- MIC Range [14]: 0.03 to 0.12 µg/mL
- Cmax (maximum substance concentration in serum) [15]: 248.8 ng/mL
- absorption in the serum [15]: very fast absorbed
- half-life [15]: 5.2 h
- time at which the maximum substance concentration was achieved [15]: 2 h
- time of secondary maximum after the application [15]: 4 h
- total AUC [15]: 1993.4 ng·h/mL

Structure (SMILES): CC[C@H]1OC(=O)[C@H](C)[C@@H](O[C@H]2C[C@@](C)(OC)[C@@H](O)[C@H](C)O2)[C@H](C)[C@@H](O[C@@H]2O[C@H](C)C[C@H](N(C)C)[C@H]2O)[C@](C)(O)C[C@@H](C)CN(C)[C@H](C)[C@@H](O)[C@]1(C)O [Azithromycin, 9-deoxo-9a-methyl-9a-aza-9a-homoerythromycin, reference compound]
- MIC ([1]; Bacillus cereus, ATCC11778, Mueller-Hinton medium, read-out: MIC): 1 µg/mL (≈ 1.34 µM)
- MIC ([2]; ATCC6633, Mueller-Hinton medium, read-out: MIC): 4 µg/mL (≈ 5.34 µM)
- MIC ([3]; ATCC10536, Mueller-Hinton medium, read-out: MIC): 1 µg/mL (≈ 1.34 µM)
- MIC ([4]; Micrococcus luteus, ATCC9341, Mueller-Hinton medium, read-out: MIC): 0.06 µg/mL (≈ 0.0801 µM)
- MIC ([5]; ATCC10240, Mueller-Hinton medium, read-out: MIC): 0.5 µg/mL (≈ 0.668 µM)
- MIC ([6]; Staphylococcus aureus, ATCC29213, Mueller-Hinton medium, read-out: MIC): 0.25 µg/mL (≈ 0.334 µM)
- MIC ([7]; read-out: MIC): 0.5 µg/mL (≈ 0.668 µM)
- MIC ([8]; ATCC6538, Mueller-Hinton medium, read-out: MIC): 1 µg/mL (≈ 1.34 µM)
- MIC ([9]; Enterococcus faecalis, ATCC8043, Mueller-Hinton medium, read-out: MIC): 0.5 µg/mL (≈ 0.668 µM)
- MIC50 [10]: 1 µg/mL (≈ 1.34 µM)
- MIC90 [10]: 16 µg/mL (≈ 21.4 µM)
- MIC Range [10]: 0.25 to 16 µg/mL
- MIC50 [11]: 0.25 µg/mL (≈ 0.334 µM)
- MIC90 [11]: 0.5 µg/mL (≈ 0.668 µM)
- MIC Range [11]: 0.12 to 0.5 µg/mL
- MIC Range [12]: 0.25 to 16 µg/mL
- MIC50 ([12]; Staphylococcus epidermidis): 0.25 µg/mL (≈ 0.334 µM)
- MIC90 ([12]; Staphylococcus epidermidis): 8 µg/mL (≈ 10.7 µM)
- MIC Range [13]: 0.25 to 8 µg/mL
- MIC50 ([13]; Staphylococcus aureus): 1 µg/mL (≈ 1.34 µM)
- MIC90 ([13]; Staphylococcus aureus): 4 µg/mL (≈ 5.34 µM)
- MIC50 [14]: 0.05 µg/mL (≈ 0.0668 µM)
- MIC90 [14]: 0.12 µg/mL (≈ 0.16 µM)
- MIC Range [14]: 0.03 to 0.25 µg/mL
